Laboratory results published in publication PMC12620000, “Exploring the feasibility of protein phosphatase 1–docking motif-mimetic cell-penetrating peptides for modulating prostate carcinogenesis” (JNCI Cancer Spectrum, 2025).
Read-outs that look alike come from different tables or passages of the source. Where no end group is shown, it is not given here.

Assays:
LNCaP cells = format: cell-based; conditions: 24 h
Procedure: (§1) One mM peptide stocks were prepared as for fluorescent versions. Cells were grown to 60%-70% confluence in 96-well plates and treated with 1-20 μM peptides in RPMI-1640 (phenol red-free). After 24 or 48 hours at 37 °C, 5% CO2, PrestoBlue (1/10 dilution) was added for 30 minutes. Fluorescence (λAbs 560 nm/λEm 600 nm) was measured using an Infinite 200 PRO reader (Tecan). Each condition had 3-5 replicates, repeated in 3 independent experiments.
(§2) Figure 3. Synergistic reduction of prostate cancer cell viability by combined AR-BS peptides. […] B) Cells were treated with combinations of AR-BS peptides (5 or 10 μM of each peptide) for 24 hours to assess potential synergistic effects. Cell viability was evaluated using the PrestoBlue Cell Viability Reagent according to the manufacturer’s instructions. Percentage cell viability was calculated as the ratio between treatment and control conditions (cells without treatment). Results are expressed as mean (SD) percentage from 3 independent experiments with 5 replicates per condition. Statistical comparisons were performed using the Mann–Whitney U test. *P < .05. Abbreviations: AR-BS = androgen receptor–binding site; mitP = mitoparan.
(§3) Percentage cell viability was calculated from the ratio between treatment condition and control condition (cells with no treatment). Results are expressed as mean ± SD from three independent experiments with five replicates per condition.

PC3 cells = format: cell-based; conditions: 24 h
Procedure: as §1, §2, §3

Substance	Cell viability, Mean (LNCaP cells; 5 μM)	Cell viability, Mean (LNCaP cells; 10 μM)	Cell viability, Mean (LNCaP cells; 20 μM)	Cell viability, Mean (PC3 cells; 5 μM)	Cell viability, Mean (PC3 cells; 10 μM)	Cell viability, Mean (PC3 cells; 20 μM)
RQLVHVVKWAKKL-NH2 [AR-BS2]	95%	96%	83%	93%	87%	81%
GSCKVFFKRAAKGKQK-NH2 [AR-BS1]	97%	96%	94%	89%	89%	81%
KVKPIYFHTGRKKRRQRRRPPQ-NH2 [AR-BS3]	91%	94%	99%	79%	88%	84%
